Measured values: ChEMBL document CHEMBL1201862, “PubChem BioAssay data set” (2004)
Activity calls are given as the source filed them.

How the values were obtained:
[1] = target: Glyceraldehyde-3-phosphate dehydrogenase (Homo sapiens, UniProt P04406)
[2] = target: T1, Alkaline phosphatase, tissue-nonspecific isozyme (Homo sapiens, UniProt P05186); experiment: potency against alkaline phosphatase TNAP – biochemical, luminescent, dose response, SAR follow-up (AID 1056)
T1 sequence (P05186 whole entry): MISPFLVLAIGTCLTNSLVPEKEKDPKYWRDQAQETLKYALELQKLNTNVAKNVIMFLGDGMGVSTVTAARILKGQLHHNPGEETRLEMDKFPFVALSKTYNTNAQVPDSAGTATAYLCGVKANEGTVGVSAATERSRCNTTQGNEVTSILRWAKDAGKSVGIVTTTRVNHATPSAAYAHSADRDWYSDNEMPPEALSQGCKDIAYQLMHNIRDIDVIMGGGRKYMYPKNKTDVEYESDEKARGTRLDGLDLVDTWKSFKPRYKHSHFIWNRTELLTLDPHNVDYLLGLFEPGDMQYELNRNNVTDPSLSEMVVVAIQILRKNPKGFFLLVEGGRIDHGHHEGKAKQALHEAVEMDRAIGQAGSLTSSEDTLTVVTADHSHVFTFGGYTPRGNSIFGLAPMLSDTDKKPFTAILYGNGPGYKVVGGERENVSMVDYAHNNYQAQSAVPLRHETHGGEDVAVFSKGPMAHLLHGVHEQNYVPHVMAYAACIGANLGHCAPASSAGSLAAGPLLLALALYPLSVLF

[3] = target: Induced myeloid leukemia cell differentiation protein Mcl-1 (Homo sapiens, UniProt Q07820); type: functional
Sequence of Induced myeloid leukemia cell differentiation protein Mcl-1 (Q07820 whole entry): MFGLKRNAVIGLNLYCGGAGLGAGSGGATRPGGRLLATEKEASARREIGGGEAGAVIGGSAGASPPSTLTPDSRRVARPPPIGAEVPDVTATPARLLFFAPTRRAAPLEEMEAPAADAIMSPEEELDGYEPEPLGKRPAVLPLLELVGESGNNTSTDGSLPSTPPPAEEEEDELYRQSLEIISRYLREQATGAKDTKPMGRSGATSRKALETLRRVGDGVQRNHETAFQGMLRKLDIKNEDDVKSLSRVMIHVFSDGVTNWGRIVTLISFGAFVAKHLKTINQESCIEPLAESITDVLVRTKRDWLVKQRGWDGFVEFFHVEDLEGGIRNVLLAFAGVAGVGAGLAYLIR

[4] = target: Eukaryotic translation initiation factor 4E (Mus musculus, UniProt P63073); experiment: blockers of eIF4G binding by eIF4E – biochemical, TR-FRET, dose response (AID 855); type: functional;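 note: potency for disrupting eIF4E binding to eIF4GI seen as loss of FRET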
Sequence of Eukaryotic translation initiation factor 4E (P63073 whole entry): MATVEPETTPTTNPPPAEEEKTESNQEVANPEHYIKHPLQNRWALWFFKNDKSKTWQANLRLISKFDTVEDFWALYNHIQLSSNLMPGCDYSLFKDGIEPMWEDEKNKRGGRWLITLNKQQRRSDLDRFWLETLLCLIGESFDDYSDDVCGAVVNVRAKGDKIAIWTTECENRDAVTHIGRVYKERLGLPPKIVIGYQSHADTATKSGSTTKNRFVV

[5] = target: T2, Replicative DNA helicase DnaB (Mycobacterium tuberculosis, UniProt P9WMR3); experiment: DnaB intein splicing inhibitors, dose response, biochemical, cell-free fluorescence (AID 449749); type: functional
T2 sequence (P9WMR3 whole entry): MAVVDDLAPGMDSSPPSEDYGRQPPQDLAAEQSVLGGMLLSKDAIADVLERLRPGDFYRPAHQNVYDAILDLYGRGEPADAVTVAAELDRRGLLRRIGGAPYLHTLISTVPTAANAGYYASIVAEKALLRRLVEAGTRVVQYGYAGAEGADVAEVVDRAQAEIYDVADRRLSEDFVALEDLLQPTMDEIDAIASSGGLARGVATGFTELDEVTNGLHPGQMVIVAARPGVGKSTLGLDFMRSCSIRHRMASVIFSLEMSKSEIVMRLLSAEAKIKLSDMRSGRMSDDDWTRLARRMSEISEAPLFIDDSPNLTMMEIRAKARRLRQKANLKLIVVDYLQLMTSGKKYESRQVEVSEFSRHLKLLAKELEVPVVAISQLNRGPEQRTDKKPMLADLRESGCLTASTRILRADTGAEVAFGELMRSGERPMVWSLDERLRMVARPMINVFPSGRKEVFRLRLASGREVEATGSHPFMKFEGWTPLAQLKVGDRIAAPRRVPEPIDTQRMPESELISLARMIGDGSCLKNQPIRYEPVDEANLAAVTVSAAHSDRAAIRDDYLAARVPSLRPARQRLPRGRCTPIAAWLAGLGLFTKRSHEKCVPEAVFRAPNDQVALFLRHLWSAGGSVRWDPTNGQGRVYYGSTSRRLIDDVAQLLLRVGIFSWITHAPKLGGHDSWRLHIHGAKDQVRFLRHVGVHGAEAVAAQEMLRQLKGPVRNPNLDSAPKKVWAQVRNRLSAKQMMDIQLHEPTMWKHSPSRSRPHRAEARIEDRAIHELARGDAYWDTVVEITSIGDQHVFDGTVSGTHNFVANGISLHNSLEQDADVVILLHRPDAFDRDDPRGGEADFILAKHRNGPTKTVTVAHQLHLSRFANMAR

Protein RecA = target: T3, Protein RecA (Mycobacterium tuberculosis, UniProt P9WHJ3); experiment: Fluorescence Cell-Free Homogeneous Dose Retest to Identify Inhibitors of RecA-Intein Splicing Activity. [Related pubchem assays (depositor defined):AID2097, AID2223, AID489010, AID492950]; type: functional
T3 sequence (P9WHJ3 whole entry): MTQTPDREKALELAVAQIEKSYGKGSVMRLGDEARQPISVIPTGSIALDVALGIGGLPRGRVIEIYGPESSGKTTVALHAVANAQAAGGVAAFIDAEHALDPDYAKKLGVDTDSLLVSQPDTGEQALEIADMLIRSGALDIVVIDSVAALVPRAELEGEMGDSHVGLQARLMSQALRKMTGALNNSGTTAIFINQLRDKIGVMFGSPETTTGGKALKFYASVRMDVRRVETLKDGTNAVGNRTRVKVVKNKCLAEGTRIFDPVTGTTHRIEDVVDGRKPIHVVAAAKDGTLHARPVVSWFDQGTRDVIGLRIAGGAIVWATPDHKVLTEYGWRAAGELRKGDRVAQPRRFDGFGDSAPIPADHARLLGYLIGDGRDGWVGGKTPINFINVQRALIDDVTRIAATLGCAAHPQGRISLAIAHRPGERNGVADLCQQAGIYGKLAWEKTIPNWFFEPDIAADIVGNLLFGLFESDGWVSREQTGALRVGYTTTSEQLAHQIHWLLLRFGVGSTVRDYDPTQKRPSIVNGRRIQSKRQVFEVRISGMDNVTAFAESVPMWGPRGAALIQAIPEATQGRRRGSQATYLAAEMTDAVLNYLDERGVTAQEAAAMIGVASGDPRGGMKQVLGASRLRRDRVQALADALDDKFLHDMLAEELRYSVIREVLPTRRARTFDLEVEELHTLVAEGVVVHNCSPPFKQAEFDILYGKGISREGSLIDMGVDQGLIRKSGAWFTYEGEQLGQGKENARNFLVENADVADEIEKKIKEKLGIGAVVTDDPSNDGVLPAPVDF

Bcl-2-related protein A1 = target: T4, Bcl-2-related protein A1 (Mus musculus, UniProt Q07440); type: functional;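 note: confirmatory dose–response counterscreen on Bfl-1, used to check hits from a UBC13 polyubiquitin inhibitor campaign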
T4 sequence (Q07440 whole entry): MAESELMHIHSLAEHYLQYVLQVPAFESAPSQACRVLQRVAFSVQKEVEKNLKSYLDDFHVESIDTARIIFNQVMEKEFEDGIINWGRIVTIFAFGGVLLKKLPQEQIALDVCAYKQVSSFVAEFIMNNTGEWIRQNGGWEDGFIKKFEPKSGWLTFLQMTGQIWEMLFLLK

[6] = target: T5, Ubiquitin-conjugating enzyme E2 N (Homo sapiens, UniProt P61088); type: functional
T5 sequence (P61088 whole entry): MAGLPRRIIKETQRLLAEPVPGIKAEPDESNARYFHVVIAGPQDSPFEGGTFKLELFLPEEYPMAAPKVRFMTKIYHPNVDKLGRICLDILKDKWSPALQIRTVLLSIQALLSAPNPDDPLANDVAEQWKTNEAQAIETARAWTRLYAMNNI

[7] = target: T5, Ubiquitin-conjugating enzyme E2 N; type: functional; remark: listed apart in the source
SUMO-activating enzyme [8] = target: T6, SUMO-activating enzyme (Homo sapiens, UniProt Q9UBT2); experiment: blockers of UBC9-mediated SUMO conjugation – biochemical, AlphaScreen, SUMOylation inhibitor project, confirmation (AID 2018); type: functional
T6 sequence (Q9UBE0 whole entry): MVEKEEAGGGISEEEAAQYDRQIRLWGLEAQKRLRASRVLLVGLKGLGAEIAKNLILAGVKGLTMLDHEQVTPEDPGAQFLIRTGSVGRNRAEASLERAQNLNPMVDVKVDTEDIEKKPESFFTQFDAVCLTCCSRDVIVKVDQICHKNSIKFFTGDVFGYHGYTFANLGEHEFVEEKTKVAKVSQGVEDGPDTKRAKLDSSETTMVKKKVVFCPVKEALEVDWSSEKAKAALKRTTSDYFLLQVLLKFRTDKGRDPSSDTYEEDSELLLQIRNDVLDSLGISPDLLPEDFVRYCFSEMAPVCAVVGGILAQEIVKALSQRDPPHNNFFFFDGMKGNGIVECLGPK
T6 sequence (Q9UBT2 whole entry): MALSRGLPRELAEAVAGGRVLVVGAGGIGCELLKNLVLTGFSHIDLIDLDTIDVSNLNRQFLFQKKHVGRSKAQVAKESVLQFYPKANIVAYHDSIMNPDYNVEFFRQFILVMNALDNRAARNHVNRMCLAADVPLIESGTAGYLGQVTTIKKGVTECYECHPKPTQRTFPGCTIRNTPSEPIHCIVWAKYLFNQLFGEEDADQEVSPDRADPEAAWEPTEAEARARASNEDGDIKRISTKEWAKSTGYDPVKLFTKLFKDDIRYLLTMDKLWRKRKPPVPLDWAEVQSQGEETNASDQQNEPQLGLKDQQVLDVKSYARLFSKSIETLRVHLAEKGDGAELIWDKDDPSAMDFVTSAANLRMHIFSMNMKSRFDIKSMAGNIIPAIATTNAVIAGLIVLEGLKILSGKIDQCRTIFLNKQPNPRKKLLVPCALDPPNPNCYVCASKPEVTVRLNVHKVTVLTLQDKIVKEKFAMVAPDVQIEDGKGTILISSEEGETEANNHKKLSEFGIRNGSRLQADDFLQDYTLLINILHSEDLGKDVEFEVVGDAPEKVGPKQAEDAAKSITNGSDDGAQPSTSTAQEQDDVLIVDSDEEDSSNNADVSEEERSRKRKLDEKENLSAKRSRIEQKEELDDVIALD

SUMO-activating enzyme [9] = target: T6, SUMO-activating enzyme; experiment: blockers of SAE1/SAE2–UBC9 SUMO transfer – biochemical, HTRF, uHTS, primary screen (AID 2006); type: protein-complex assay
[10] = target: T7, Heat shock factor protein 1 (Mus musculus, UniProt P38532); experiment: enhancement of HSF1-driven luciferase signal – cell-based, NIH3T3, luminescence, dose retest, confirmation (AID 435004); type: functional;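 note: stress induced by proteasome inhibitor MG132 added 30 min after compound; luciferase reporter driven by HSF1 response element in NIH3T3 cells; actives raise luminescence as potentiators of the MG132 stress response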
T7 sequence (P38532 whole entry): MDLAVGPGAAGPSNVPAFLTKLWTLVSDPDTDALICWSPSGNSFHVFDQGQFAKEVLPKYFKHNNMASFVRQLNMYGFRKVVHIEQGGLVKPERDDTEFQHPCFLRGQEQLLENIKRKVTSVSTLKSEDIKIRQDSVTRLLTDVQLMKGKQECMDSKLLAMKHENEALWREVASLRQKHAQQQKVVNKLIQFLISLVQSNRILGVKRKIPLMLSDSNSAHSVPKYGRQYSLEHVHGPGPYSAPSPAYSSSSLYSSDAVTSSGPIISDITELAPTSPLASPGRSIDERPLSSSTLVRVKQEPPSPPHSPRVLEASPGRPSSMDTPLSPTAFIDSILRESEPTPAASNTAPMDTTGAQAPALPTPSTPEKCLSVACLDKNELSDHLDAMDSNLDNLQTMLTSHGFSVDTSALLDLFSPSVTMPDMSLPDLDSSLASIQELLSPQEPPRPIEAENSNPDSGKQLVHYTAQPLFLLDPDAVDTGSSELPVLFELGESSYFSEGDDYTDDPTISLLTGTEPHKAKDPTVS

[11] = target: T8, Carboxy-terminal domain RNA polymerase II polypeptide A small phosphatase 1 (Homo sapiens, UniProt Q9GZU7); experiment: CTDSP1 inhibitors, concentration-response, biochemical, absorbance readout, ultra-high-throughput screen actives (AID 540297); type: functional
T8 sequence (Q9GZU7 whole entry): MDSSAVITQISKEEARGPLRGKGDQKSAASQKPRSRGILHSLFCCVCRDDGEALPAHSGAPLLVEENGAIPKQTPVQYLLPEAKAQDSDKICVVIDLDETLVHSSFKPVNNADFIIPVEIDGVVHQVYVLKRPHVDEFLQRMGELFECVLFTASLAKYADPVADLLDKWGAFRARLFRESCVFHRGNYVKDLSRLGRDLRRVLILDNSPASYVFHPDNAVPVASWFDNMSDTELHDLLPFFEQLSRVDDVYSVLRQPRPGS

cells [12] = type: functional, cell-based
cells [13] = type: functional, cell-based; remark: listed apart in the source
[14] = THP-1 cell cytotoxicity, dose response, cytotoxicity control for non-replicating M. tuberculosis project (AID 489025); type: functional
[15] = HepG2 cell cytotoxicity, dose response, cytotoxicity control for non-replicating M. tuberculosis project (AID 489018); type: functional; settings: Mycobacterium tuberculosis
[16] = Vero E6 cell cytotoxicity, dose response, cytotoxicity control for non-replicating M. tuberculosis project, secondary assay (AID 492998); type: functional, VeroE6; settings: Vero C1008
[17] = viability of uninfected HEp-2 cells – cell-based, HTS, cytotoxicity control for RSV inhibitor project, dose response (AID 2410); type: functional; settings: human respiratory syncytial virus
[18] = target: T9, DNA repair protein RAD52 homolog (Homo sapiens, UniProt P43351); type: functional, biochemical
T9 sequence (P43351 whole entry): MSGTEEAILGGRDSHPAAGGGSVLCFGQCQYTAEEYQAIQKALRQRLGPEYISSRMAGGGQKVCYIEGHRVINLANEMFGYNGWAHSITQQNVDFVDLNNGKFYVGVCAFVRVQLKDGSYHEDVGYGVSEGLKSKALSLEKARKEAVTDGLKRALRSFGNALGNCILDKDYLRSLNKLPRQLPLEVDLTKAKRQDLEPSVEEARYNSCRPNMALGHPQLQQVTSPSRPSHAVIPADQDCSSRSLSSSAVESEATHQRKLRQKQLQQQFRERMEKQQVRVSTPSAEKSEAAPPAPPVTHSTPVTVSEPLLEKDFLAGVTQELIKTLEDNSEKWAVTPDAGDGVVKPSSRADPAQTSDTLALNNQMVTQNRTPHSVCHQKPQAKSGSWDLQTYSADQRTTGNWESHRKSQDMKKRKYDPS

Sequence of Glyceraldehyde-3-phosphate dehydrogenase (P04406 whole entry): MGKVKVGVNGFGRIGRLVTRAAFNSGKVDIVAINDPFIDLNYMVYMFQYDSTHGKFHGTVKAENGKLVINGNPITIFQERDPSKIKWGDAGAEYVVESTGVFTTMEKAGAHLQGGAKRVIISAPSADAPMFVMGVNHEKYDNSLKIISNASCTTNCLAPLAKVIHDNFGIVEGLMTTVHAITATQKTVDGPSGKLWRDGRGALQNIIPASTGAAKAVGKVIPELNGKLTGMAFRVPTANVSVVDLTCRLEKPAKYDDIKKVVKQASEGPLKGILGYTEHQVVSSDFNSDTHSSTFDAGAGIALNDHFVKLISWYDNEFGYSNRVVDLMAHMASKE

Compound: O=S(=O)(Nc1ccncn1)c1ccccc1
- IC50 [1]: > 100 µM (not active)
- IC50 [2]: > 100 µM (inactive)

Compound: Nc1ccc(N)c(C(=O)O)c1
- IC50 [3]: 1.59 µM (active)
- IC50 [4]: 13.4 µM (active)
- AC50 [5]: 6.81 µM (active)
- EC50 (Protein RecA): 3.76 µM (active)

Compound: CCC(OCC(O)CN1CCN(CCN2C(=O)c3cccc4cccc(c34)C2=O)CC1)c1ccccc1 (stereo unspecified)
- IC50 (Bcl-2-related protein A1): > 20 µM (inactive)
- IC50 [6]: 12.4 µM (active)
- IC50 [7]: 9.26 µM (active)

Compound: O=C(N/N=C/c1ccc(-c2cccc([N+](=O)[O-])c2)o1)c1ccccc1O
- IC50 (SUMO-activating enzyme [8]): 16.3 µM (active)
- IC50 (SUMO-activating enzyme [9]): 15.9 µM (active)
- EC50 [10]: > 260 µM (inactive)
- IC50 [11]: 3.68 µM (active)

Compound: O=C(CCc1ccccc1)N/N=C/c1cc(Br)ccc1O
- EC50 (cells [12]): 286 µM (active)
- EC50 (cells [13]): 261 µM (active)
- CC50 [14]: 6.36 µM (active)
- CC50 [15]: 13.5 µM (active)
- CC50 [16]: 12.3 µM (active)

Compound: Cc1ccc(C2=NN(C(=O)CCC(=O)O)C(c3cn(-c4ccccc4)nc3-c3ccc(C)cc3)C2)cc1 (stereo unspecified)
- CC50 [17]: 24.8 µM (active)
- IC50 (SUMO-activating enzyme [8]): 4.8 µM (active)
- IC50 (SUMO-activating enzyme [9]): 20.1 µM (active)

Compound: COC(=O)c1cc(-c2ccc(OC)cc2)[nH]n1
- IC50 [1]: > 100 µM (not active)
- IC50 [2]: 2.33 µM (active)

Compound: O=C(N/N=C/c1ccc([N+](=O)[O-])o1)c1cc2c(ccc3ccccc32)o1
- IC50 (SUMO-activating enzyme [8]): 28.4 µM (active)
- IC50 (SUMO-activating enzyme [9]): 11 µM (active)
- IC50 [4]: 50 µM (inactive)

Compound: Cc1ccccc1C(=O)N1CCN(c2ccc(NC(=S)NC(=O)c3cccs3)cc2)CC1
- IC50 (Bcl-2-related protein A1): > 20 µM (inactive)
- IC50 [6]: 10.8 µM (active)
- IC50 [7]: 15.6 µM (active)

Compound: CC(OC(=O)c1cc(-c2ccc(Br)cc2)[nH]n1)C(=O)NC(C)(C)C (stereo unspecified)
- IC50 [1]: > 100 µM (not active)
- IC50 [2]: 19.5 µM (active)

Compound: COc1ccc(Cn2c(SCC(=O)NCc3ccco3)nc3ccsc3c2=O)cc1
- IC50 (Bcl-2-related protein A1): > 20 µM (inactive)
- IC50 [6]: 10.4 µM (active)
- IC50 [7]: 14.4 µM (active)

Compound: CN1CCN(CCCNC(=O)c2ccc(/C=C3\Sc4ccccc4N(Cc4ccc(F)cc4)C3=O)cc2)CC1
- IC50 [4]: 50 µM (inactive)
- AC50 [18]: 8.2 µM (active)
